These molecules were tested on CCRF-CEM (assay: Growth inhibition of human CCRF-CEM cells assessed as cell growth at 10 uM incubated for 48 hrs by sulforhodamine B assay relative to control). Conditions: read-out: Activity.
Assay type: functional

SMILES | growth at 10 µM [%]
O=C1NCC(c2cc3ccc(Cl)cc3[nH]c2=O)Nc2ccccc21 (stereo not drawn) | 134

The molecules below were run on A549 (assay: Growth inhibition of human A549/ATCC cells assessed as cell growth at 10 uM incubated for 48 hrs by sulforhodamine B assay relative to control). Conditions: A549, 48 h, read-out: Activity.
Assay type: functional

SMILES | growth at 10 µM [%]
O=C1NCC(c2cc3ccc(Cl)cc3[nH]c2=O)Nc2ccccc21 (stereo not drawn) | 73.9

These molecules were tested on HOP-62 (assay: Growth inhibition of human HOP62 cells assessed as cell growth at 10 uM incubated for 48 hrs by sulforhodamine B assay relative to control). Conditions: HOP-62, 48 h, read-out: Activity.
Assay type: functional

SMILES | growth at 10 µM [%]
O=C1NCC(c2cc3ccc(Cl)cc3[nH]c2=O)Nc2ccccc21 (stereo not drawn) | 81.3

Each molecule was assayed on HOP-92 (assay: Growth inhibition of human HOP92 cells assessed as cell growth at 10 uM incubated for 48 hrs by sulforhodamine B assay relative to control). Conditions: HOP-92, 48 h, read-out: Activity.
Assay type: functional

SMILES | growth at 10 µM [%]
O=C1NCC(c2cc3ccc(Cl)cc3[nH]c2=O)Nc2ccccc21 (stereo not drawn) | 74

These molecules were tested on NCI-H226 (assay: Growth inhibition of human NCI-H226 cells assessed as cell growth at 10 uM incubated for 48 hrs by sulforhodamine B assay relative to control). Conditions: NCI-H226, 48 h, read-out: Activity.
Assay type: functional

SMILES | growth at 10 µM [%]
O=C1NCC(c2cc3ccc(Cl)cc3[nH]c2=O)Nc2ccccc21 (stereo not drawn) | 79.7

Each molecule was assayed on NCI-H23 (assay: Growth inhibition of human NCI-H23 cells assessed as cell growth at 10 uM incubated for 48 hrs by sulforhodamine B assay relative to control). Conditions: NCI-H23, 48 h, read-out: Activity.
Assay type: functional

SMILES | growth at 10 µM [%]
O=C1NCC(c2cc3ccc(Cl)cc3[nH]c2=O)Nc2ccccc21 (stereo not drawn) | 94

Each molecule was assayed on NCI-H322M (assay: Growth inhibition of human NCI-H322M cells assessed as cell growth at 10 uM incubated for 48 hrs by sulforhodamine B assay relative to control). Conditions: read-out: Activity.
Assay type: functional

SMILES | growth at 10 µM [%]
O=C1NCC(c2cc3ccc(Cl)cc3[nH]c2=O)Nc2ccccc21 (stereo not drawn) | 98

What follows are molecules tested on NCI-H522 (assay: Growth inhibition of human NCI-H522 cells assessed as cell growth at 10 uM incubated for 48 hrs by sulforhodamine B assay relative to control). Conditions: NCI-H522, 48 h, read-out: Activity.
Assay type: functional

SMILES | growth at 10 µM [%]
O=C1NCC(c2cc3ccc(Cl)cc3[nH]c2=O)Nc2ccccc21 (stereo not drawn) | 63.8

What follows are molecules tested on COLO 205 (assay: Growth inhibition of human COLO205 cells assessed as cell growth at 10 uM incubated for 48 hrs by sulforhodamine B assay relative to control). Conditions: COLO 205, 48 h, read-out: Activity.
Assay type: functional

SMILES | growth at 10 µM [%]
O=C1NCC(c2cc3ccc(Cl)cc3[nH]c2=O)Nc2ccccc21 (stereo not drawn) | 94.9

These molecules were tested on HCT-116 (assay: Growth inhibition of human HCT116 cells assessed as cell growth at 10 uM incubated for 48 hrs by sulforhodamine B assay relative to control). Conditions: HCT-116, 48 h, read-out: Activity.
Assay type: functional

SMILES | growth at 10 µM [%]
O=C1NCC(c2cc3ccc(Cl)cc3[nH]c2=O)Nc2ccccc21 (stereo not drawn) | 87.8

The molecules below were run on HT-29 (assay: Growth inhibition of human HT-29 cells assessed as cell growth at 10 uM incubated for 48 hrs by sulforhodamine B assay relative to control). Conditions: HT-29, 48 h, read-out: Activity.
Assay type: functional

SMILES | growth at 10 µM [%]
O=C1NCC(c2cc3ccc(Cl)cc3[nH]c2=O)Nc2ccccc21 (stereo not drawn) | 72.2

These molecules were tested on KM12 (assay: Growth inhibition of human KM12 cells assessed as cell growth at 10 uM incubated for 48 hrs by sulforhodamine B assay relative to control). Conditions: KM12, 48 h, read-out: Activity.
Assay type: functional

SMILES | growth at 10 µM [%]
O=C1NCC(c2cc3ccc(Cl)cc3[nH]c2=O)Nc2ccccc21 (stereo not drawn) | 103

The molecules below were run on SW-620 (assay: Growth inhibition of human SW620 cells assessed as cell growth at 10 uM incubated for 48 hrs by sulforhodamine B assay relative to control). Conditions: SW-620, 48 h, read-out: Activity.
Assay type: functional

SMILES | growth at 10 µM [%]
O=C1NCC(c2cc3ccc(Cl)cc3[nH]c2=O)Nc2ccccc21 (stereo not drawn) | 107

These molecules were tested on SF-539 (assay: Growth inhibition of human SF539 cells assessed as cell growth at 10 uM incubated for 48 hrs by sulforhodamine B assay relative to control). Conditions: SF-539, 48 h, read-out: Activity.
Assay type: functional

SMILES | growth at 10 µM [%]
O=C1NCC(c2cc3ccc(Cl)cc3[nH]c2=O)Nc2ccccc21 (stereo not drawn) | 95

These molecules were tested on SNB-19 (assay: Growth inhibition of human SNB19 cells assessed as cell growth at 10 uM incubated for 48 hrs by sulforhodamine B assay relative to control). Conditions: SNB-19, 48 h, read-out: Activity.
Assay type: functional

SMILES | growth at 10 µM [%]
O=C1NCC(c2cc3ccc(Cl)cc3[nH]c2=O)Nc2ccccc21 (stereo not drawn) | 108

The molecules below were run on U-251 (assay: Growth inhibition of human U251 cells assessed as cell growth at 10 uM incubated for 48 hrs by sulforhodamine B assay relative to control). Conditions: U-251, 48 h, read-out: Activity.
Assay type: functional

SMILES | growth at 10 µM [%]
O=C1NCC(c2cc3ccc(Cl)cc3[nH]c2=O)Nc2ccccc21 (stereo not drawn) | 88.9

What follows are molecules tested on Malme-3M (assay: Growth inhibition of human MALME-3M cells assessed as cell growth at 10 uM incubated for 48 hrs by sulforhodamine B assay relative to control). Conditions: read-out: Activity.
Assay type: functional

SMILES | growth at 10 µM [%]
O=C1NCC(c2cc3ccc(Cl)cc3[nH]c2=O)Nc2ccccc21 (stereo not drawn) | 93.4

What follows are molecules tested on SK-MEL-28 (assay: Growth inhibition of human SK-MEL-28 cells assessed as cell growth at 10 uM incubated for 48 hrs by sulforhodamine B assay relative to control). Conditions: SK-MEL-28, 48 h, read-out: Activity.
Assay type: functional

SMILES | growth at 10 µM [%]
O=C1NCC(c2cc3ccc(Cl)cc3[nH]c2=O)Nc2ccccc21 (stereo not drawn) | 105

The molecules below were run on UACC-62 (assay: Growth inhibition of human UACC62 cells assessed as cell growth at 10 uM incubated for 48 hrs by sulforhodamine B assay relative to control). Conditions: UACC-62, 48 h, read-out: Activity.
Assay type: functional

SMILES | growth at 10 µM [%]
O=C1NCC(c2cc3ccc(Cl)cc3[nH]c2=O)Nc2ccccc21 (stereo not drawn) | 106

Each molecule was assayed on OVCAR-3 (assay: Growth inhibition of human OVCAR3 cells assessed as cell growth at 10 uM incubated for 48 hrs by sulforhodamine B assay relative to control). Conditions: OVCAR-3, 48 h, read-out: Activity.
Assay type: functional

SMILES | growth at 10 µM [%]
O=C1NCC(c2cc3ccc(Cl)cc3[nH]c2=O)Nc2ccccc21 (stereo not drawn) | 109

The molecules below were run on OVCAR-4 (assay: Growth inhibition of human OVCAR4 cells assessed as cell growth at 10 uM incubated for 48 hrs by sulforhodamine B assay relative to control). Conditions: OVCAR-4, 48 h, read-out: Activity.
Assay type: functional

SMILES | growth at 10 µM [%]
O=C1NCC(c2cc3ccc(Cl)cc3[nH]c2=O)Nc2ccccc21 (stereo not drawn) | 94

What follows are molecules tested on OVCAR-5 (assay: Growth inhibition of human OVCAR5 cells assessed as cell growth at 10 uM incubated for 48 hrs by sulforhodamine B assay relative to control). Conditions: OVCAR-5, 48 h, read-out: Activity.
Assay type: functional

SMILES | growth at 10 µM [%]
O=C1NCC(c2cc3ccc(Cl)cc3[nH]c2=O)Nc2ccccc21 (stereo not drawn) | 97.7

The molecules below were run on OVCAR-8 (assay: Growth inhibition of human OVCAR8 cells assessed as cell growth at 10 uM incubated for 48 hrs by sulforhodamine B assay relative to control). Conditions: OVCAR-8, 48 h, read-out: Activity.
Assay type: functional

SMILES | growth at 10 µM [%]
O=C1NCC(c2cc3ccc(Cl)cc3[nH]c2=O)Nc2ccccc21 (stereo not drawn) | 97.8

What follows are molecules tested on NCI/ADR-RES (assay: Growth inhibition of human NCI/ADR-RES cells assessed as cell growth at 10 uM incubated for 48 hrs by sulforhodamine B assay relative to control). Conditions: read-out: Activity.
Assay type: functional

SMILES | growth at 10 µM [%]
O=C1NCC(c2cc3ccc(Cl)cc3[nH]c2=O)Nc2ccccc21 (stereo not drawn) | 99.4

The molecules below were run on SK-OV-3 (assay: Growth inhibition of human SKOV3 cells assessed as cell growth at 10 uM incubated for 48 hrs by sulforhodamine B assay relative to control). Conditions: SK-OV-3, 48 h, read-out: Activity.
Assay type: functional

SMILES | growth at 10 µM [%]
O=C1NCC(c2cc3ccc(Cl)cc3[nH]c2=O)Nc2ccccc21 (stereo not drawn) | 77.8

What follows are molecules tested on A498 (assay: Growth inhibition of human A498 cells assessed as cell growth at 10 uM incubated for 48 hrs by sulforhodamine B assay relative to control). Conditions: A498, 48 h, read-out: Activity.
Assay type: functional

SMILES | growth at 10 µM [%]
O=C1NCC(c2cc3ccc(Cl)cc3[nH]c2=O)Nc2ccccc21 (stereo not drawn) | 112

What follows are molecules tested on ACHN (assay: Growth inhibition of human ACHN cells assessed as cell growth at 10 uM incubated for 48 hrs by sulforhodamine B assay relative to control). Conditions: read-out: Activity.
Assay type: functional

SMILES | growth at 10 µM [%]
O=C1NCC(c2cc3ccc(Cl)cc3[nH]c2=O)Nc2ccccc21 (stereo not drawn) | 101

These molecules were tested on RXF 393 (assay: Growth inhibition of human RXF393 cells assessed as cell growth at 10 uM incubated for 48 hrs by sulforhodamine B assay relative to control). Conditions: RXF 393, 48 h, read-out: Activity.
Assay type: functional

SMILES | growth at 10 µM [%]
O=C1NCC(c2cc3ccc(Cl)cc3[nH]c2=O)Nc2ccccc21 (stereo not drawn) | 97.2

What follows are molecules tested on SN12C (assay: Growth inhibition of human SN12C cells assessed as cell growth at 10 uM incubated for 48 hrs by sulforhodamine B assay relative to control). Conditions: read-out: Activity.
Assay type: functional

SMILES | growth at 10 µM [%]
O=C1NCC(c2cc3ccc(Cl)cc3[nH]c2=O)Nc2ccccc21 (stereo not drawn) | 111

These molecules were tested on TK-10 (assay: Growth inhibition of human TK10 cells assessed as cell growth at 10 uM incubated for 48 hrs by sulforhodamine B assay relative to control). Conditions: TK-10, 48 h, read-out: Activity.
Assay type: functional

SMILES | growth at 10 µM [%]
O=C1NCC(c2cc3ccc(Cl)cc3[nH]c2=O)Nc2ccccc21 (stereo not drawn) | 83

The molecules below were run on UO-31 (assay: Growth inhibition of human UO31 cells assessed as cell growth at 10 uM incubated for 48 hrs by sulforhodamine B assay relative to control). Conditions: UO-31, 48 h, read-out: Activity.
Assay type: functional

SMILES | growth at 10 µM [%]
O=C1NCC(c2cc3ccc(Cl)cc3[nH]c2=O)Nc2ccccc21 (stereo not drawn) | 88.7

These molecules were tested on T47D (assay: Growth inhibition of human T47D cells assessed as cell growth at 10 uM incubated for 48 hrs by sulforhodamine B assay relative to control). Conditions: read-out: Activity.
Assay type: functional

SMILES | growth at 10 µM [%]
O=C1NCC(c2cc3ccc(Cl)cc3[nH]c2=O)Nc2ccccc21 (stereo not drawn) | 66.5

Each molecule was assayed on MDA-MB-468 (assay: Growth inhibition of human MDA-MB-468 cells assessed as cell growth at 10 uM incubated for 48 hrs by sulforhodamine B assay relative to control). Conditions: MDA-MB-468, 48 h, read-out: Activity.
Assay type: functional

SMILES | growth at 10 µM [%]
O=C1NCC(c2cc3ccc(Cl)cc3[nH]c2=O)Nc2ccccc21 (stereo not drawn) | 96.5

From ChEMBL document CHEMBL4138146, “A Schmidt rearrangement-mediated synthesis of novel tetrahydro-benzo[1,4]diazepin-5-ones as potential anticancer and antiprotozoal agents” (Eur J Med Chem, 2017)
